According to patent publication US6602852B1, “Basic peptides and pharmaceutical compositions containing same” (NST NeuroSurvival Technologies, Ltd., priority 1998, dated 2003):

Key:
[1] = test system: Human Umbilical Vein Endothelial Cells (HUVEC); details: 500 ng of compound, 40 minutes
Experimental: HUVEC (CC-2517, obtained from Clonetics, Walkersville, Md.) were grown on tissue culture flasks in Endothelial cell medium (EGM-2 Bulletkit, CC 3162, Clonetics). Mid-confluent cultures were harvested using Trypsine/EDTA solution (CC-5012, Clonetics). The cells were rinsed twice with PBS containing 2% BSA and kept on ice. Samples of 10^6 cells were tested for binding.
The reactions were incubated at room temperature for 40 minutes and then 400 μl of TBS-BSA were added and cells were collected by centrifugation at 3000×g for 3 minutes. Cells were washed in 1 ml of TBS-BSA and centrifuged as before and then suspended in 100 μl of TBS-BSA containing streptavidin conjugated to flourescein (FITC) for detection of the bound biotinylated compound. […] Thereafter, 400 μl of TBS-BSA were added and cells were centrifuged and washed again with 1 ml of TBS-BSA as before and then resuspended in 400 μl of TSS and taken for FACS analysis.
The FACS analysis was performed on Beckton-Dickinson cell sorter, using lysis II software. Excitation was at 488 nm and emission for FITC detection was a 535 nm.
A dot plot analysis was done for each treatment.

[2] = test system: procoagulant activity of apoptotic HeLa S3 cells; details: 0.5 μM
Experimental: In the standard APTT test, clot formation is triggered by recalcification of plasma and addition of cephalin, i.e. negatively-charged phospholipids. Time until clot formation was measured as described in Example 3. […] In the modified APTT test, used in the present study, the addition of negatively-charged phospholipids (cephalin) was replaced by addition of apoptotic cells.
The cultured medium was discarded, and cells that were loosely attached to the growing surface, were collected in PBS, as described in Example 2B. These cells were washed and resuspended in TBS, and were regarded as advanced apoptotic cells. Equal numbers of apoptotic or control non-treated cells (10^5) in a volume of 100 μl, were mixed with 100 μl of 25 mM of CaCl2 and the clotting time was measured. […] Inhibition of their procoagulant activity by NST300 compounds was tested following pre-incubation of apoptotic cells with the different NST300 compounds.
Pre-incubation of equal numbers of apoptotic or control non-treated cells (10^5) with NST300 compounds was for 10 minutes at room temperature in a final volume of 100 μl. The compounds were used at concentration of 0.5 μM. The results can be seen in FIG. 5a.

Cardiolipin (CL) = test system: Cardiolipin (CL)
Experimental: As control, wells were coated with ethanol only. The coated plates were washed 3 times with 100 ul of blocking buffer (PBS containing 0.3% gelatin (Sigma) and 1 mM EDTA) to block non specific binding. A 5 min incubation time was used between each wash. Normal plasma (Ilex, Italy, 84670-11) and Lupus plasma (either from Gradipore, Australia, LAHP-1, or from Biopool, Ventura, Calif.) were prepared according to the producer instruction. The plasma was diluted 1/10 in the blocking buffer and was added to the CL and ethanol coated wells. Binding of different NST 300 compounds to CL was performed by addition of serial dilutions of NST compounds (prepared in the plasma/blocking buffer solution) to the CL or ethanol coated wells. Following 3 hr incubation, the plates were washed twice with PBS/BSA buffer (0.4% bovine serum albumin (BSA) in PBS). For detection of anticardiolipin binding property of the tested plasma, the plates were incubated with a 1/10000 dilution of Peroxidase-conjugated affinity purified Goat anti-human IgG (Jackson Immunoresearch lab.) in PBS/BSA buffer for 1 hour. The plates were then washed 3 times with PBS/BSA buffer, and color reaction was developed by incubation with 100 ul of 0-phenylenediamine (OPD) dihydrochloride (Sigma p-7288) at a concentration of 0.4 mg/ml in 0.05 M phosphate citrate buffer, pH 5.0 supplemented, with 4 ul of 30% hydrogen peroxide (Aldrich) for 10 ml mixture. To detect the level of NST 300 compound that was bound to CL, parallel wells were incubated with streptavidin conugated to OPD (SA-OPD, Jackson Immunoresearch lab.), that specifically recognize the biotinylated NST 300 compound. The resulting colour changes were recorded at […] using a Bio Tek Elx800 Eliza reader.

apoptotic hepatocytes = format: in vivo
Experimental: All animals were killed 2 hr after administration of antibody followed by organ removal. Heart, lung and liver were collected.
Formalin fixed paraffin-embedded tissues were sectioned (5 μm) for staining with Hematoxylin/Eosin or other techniques.
Endogenous peroxidase activity was blocked by incubation with 3% H2O2.
After washing with PBS, staining was developed with 3,3-diaminobenzidine tetrahydrochloride (DAB), and counterstained with Hematoxylin.
Liver sections from different lobes were used for detection of stained apoptotic cells compared to normal cells.
The percentage of apoptotic cells in the fields was estimated by evaluating parallel sections stained with Hematoxylin/Eosin. Analysis was performed blindly, since the pathologist performing the histological evaluation was unaware of the assignment of mice to the treatment or control group.

Substance: Myristate-KKKKKRFSFKKSFKLSGFSFKKNKKK (SEQUENCE ID NO. 2)-(biotin) [NST302]
- cells FITC positive [1]: About 70%
- effect on procoagulant effect of apoptotic cells ([2]; FIG. 5a): fully reversing
- increase of clotting time by a factor ([2]; apoptotic cells): 2
- concentration at which binding to CL reached saturation (Cardiolipin (CL); CL coated ELISA wells): about 0.3 μM
- concentration from which displacement of Lupus plasma binding to CL starts (Cardiolipin (CL); Lupus plasma from Gradipore): 0.1 µM
- concentration of maximum effect of displacement of Lupus plasma from CL (Cardiolipin (CL); Lupus plasma from Gradipore): 2.5 µM
- staining in normal hepatocytes (apoptotic hepatocytes; animals injected with NST302 only): never observed
- staining of liver in anti-Fas treated mice (apoptotic hepatocytes; intravenous, 5 μM, avidin biotin peroxidase detection): observed at cytoplasma and cytoplasmatic border of apoptotic hepatocytes
